Results on four molecules are retold here after publication PMC7771853, “Differential effects of novel kappa opioid receptor antagonists on dopamine neurons using acute brain slice electrophysiology” (PLoS ONE, 2020).

The structures appear in SMILES notation.

One assay concerns VTA neurons. Kind of assay: Wash in of antagonist: change in Iholding in VTA neurons. It is filed as cell-based, rat. Conditions: for change in Iholding on wash in: across the concentrations tested.
Another assay deals with KOR. Also noted: method as in PMID 21832171. The note with it: cited from earlier work.

For `CCc1cc(F)c2nc(N3CCC(NC4CCOCC4)CC3)c(-c3nc(C)no3)c(C)c2c1` [BTRX-335140, 1-(6-ethyl-8-fluoro-4-methyl-3-(3-methyl-1,2,4-oxadiazol-5-yl)quinolin-2-yl)-N-(tetrahydro-2H-pyran-4-yl)piperidin-4 amine], the “change in Iholding on wash in” value in the assay on VTA neurons is on record as “means very close to zero”.

For `CC(C)CNCc1ccc(-c2ccccc2S(=O)(=O)N2CCCC2)cc1` [PF-04455242, 2-methyl-N-((2'-(pyrrolidin-1-ylsulfonyl)biphenyl-4-yl)methyl)propan-1-amine], in the assay with KOR (HEK293 cells expressing KOR ref 21), the “extracellular signal-regulated kinase (ERK) phosphorylation” value is on record as “did not generate”. The “c-Jun N terminal kinase (JNK) phosphorylation” value in the assay on KOR (HEK293 cells expressing KOR, compared to other KOR antagonists ref 21) is given as “minimal”. Moreover, the “neurons with outward current independent of KOR activation” value in the assay with VTA neurons (1 μM antagonist) is on record as 3/8.

`CCc1ccc2nc(N3CCC(NCC4(C)COC4)CC3)c(-c3nc(C)no3)cc2c1` [BTRX-395750]: in the assay with VTA neurons, the “change in Iholding on wash in” value is reported as “means very close to zero”.

With `Cc1cc(C)cc([C@@H]2CCCN2Cc2ccc(Oc3ccc(C(N)=O)cc3F)cc2)c1` [JNJ-67953964, (S)-3-fluoro-4-(4-((2-(3,5-dimethylphenyl)pyrrolidin-1-yl)methyl)phenoxy)benzamide], the “neurons with possible inward current on wash in” value in the assay with VTA neurons (10 nM antagonist) is 3 of 13.
